# Earlier results in US20080176893A1, “Formulation of a Thienopyridine Platelet Aggregation Inhibitor” (ELI LILLY AND COMPANY, priority 2005, published 2008).
structure (smiles),measurement,value
"CC(=O)Oc1cc2c(s1)CCN(C(C(=O)C1CC1)c1ccccc1F)C2.Cl (stereo not drawn) [Prasugrel, 2-Acetoxy-5-(α-cycloprpylcarbonyl-2-fluorobenzyl)-4,5,6,7-tetrahydrothieno[3,2-c]pyridine]",degradation on prolonged exposure to air and moisture,some degradation
